Results taken from PubChem BioAssay (NCI).
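GI50: concentration for 50% inhibition of growth. TGI is the concentration that stops growth completely.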

Tests used:
Assay in all cases: NCI-60 cell line screen, 384-well format
SK-MEL-5 melanoma = system: SK-MEL-5 melanoma
SF-295 CNS = system: SF-295 CNS
MDA-MB-231 breast = system: MDA-MB-231 breast
OVCAR-8 ovarian = system: OVCAR-8 ovarian
SNB-75 CNS = system: SNB-75 CNS
MDA-MB-435 melanoma = system: MDA-MB-435 melanoma
NCI-H23 lung = system: NCI-H23 lung
SF-268 CNS = system: SF-268 CNS
COLO 205 colon = system: COLO 205 colon
CCRF-CEM leukemia = system: CCRF-CEM leukemia
MDA-MB-468 breast = system: MDA-MB-468 breast
NCI-H322M lung = system: NCI-H322M lung
SR leukemia = system: SR leukemia
U251 glioblastoma = system: U251 glioblastoma
HT29 colon = system: HT29 colon
SN12C renal = system: SN12C renal
NCI-H226 lung = system: NCI-H226 lung
SK-OV-3 ovarian = system: SK-OV-3 ovarian
UO-31 renal = system: UO-31 renal
NCI-H460 NSCLC = system: NCI-H460 NSCLC
HOP-92 NSCLC = system: HOP-92 NSCLC
EKVX NSCLC = system: EKVX NSCLC
RXF 393 renal = system: RXF 393 renal
ACHN renal = system: ACHN renal
PC-3 prostate = system: PC-3 prostate
SK-MEL-28 melanoma = system: SK-MEL-28 melanoma
T-47D breast = system: T-47D breast
HS 578T breast = system: HS 578T breast
UACC-257 melanoma = system: UACC-257 melanoma
SF-539 CNS = system: SF-539 CNS
RPMI-8226 leukemia = system: RPMI-8226 leukemia
OVCAR-4 ovarian = system: OVCAR-4 ovarian
HCT-15 colon = system: HCT-15 colon
HL-60(TB) leukemia = system: HL-60(TB) leukemia
MALME-3M melanoma = system: MALME-3M melanoma
BT-549 breast = system: BT-549 breast
A498 renal = system: A498 renal
LOX IMVI melanoma = system: LOX IMVI melanoma
K-562 leukemia = system: K-562 leukemia
HCC-2998 colon = system: HCC-2998 colon
DU-145 prostate = system: DU-145 prostate
SW-620 colon = system: SW-620 colon
MOLT-4 leukemia = system: MOLT-4 leukemia
SNB-19 CNS = system: SNB-19 CNS
NCI/ADR-RES ovarian = system: NCI/ADR-RES ovarian
M14 melanoma = system: M14 melanoma
NCI-H522 lung = system: NCI-H522 lung
OVCAR-5 ovarian = system: OVCAR-5 ovarian
786-0 renal = system: 786-0 renal
HOP-62 NSCLC = system: HOP-62 NSCLC
OVCAR-3 ovarian = system: OVCAR-3 ovarian
A549 NSCLC = system: A549 NSCLC

CC(C)[C@]12O[C@H]1[C@@H]1O[C@]13[C@]1(O[C@H]1C[C@H]1C4=C(CC[C@@]13C)C(=O)OC4)[C@@H]2O
GI50 (SK-MEL-5 melanoma): < 10 nM
TGI (SK-MEL-5 melanoma): 12.2 nM
GI50 (SF-295 CNS): < 10 nM
TGI (SF-295 CNS): 21.3 nM
GI50 (MDA-MB-231 breast): < 10 nM
TGI (MDA-MB-231 breast): 21.7 nM
GI50 (OVCAR-8 ovarian): 10.6 nM
TGI (OVCAR-8 ovarian): 36.6 nM
GI50 (SNB-75 CNS): < 10 nM
TGI (SNB-75 CNS): 21.9 nM
GI50 (MDA-MB-435 melanoma): < 10 nM
TGI (MDA-MB-435 melanoma): 18.1 nM
GI50 (NCI-H23 lung): < 10 nM
TGI (NCI-H23 lung): < 10 nM
GI50 (SF-268 CNS): 10.2 nM
TGI (SF-268 CNS): 27.7 nM
GI50 (COLO 205 colon): < 10 nM
TGI (COLO 205 colon): 23.3 nM
GI50 (CCRF-CEM leukemia): < 10 nM
TGI (CCRF-CEM leukemia): 15.7 nM
GI50 (MDA-MB-468 breast): < 10 nM
TGI (MDA-MB-468 breast): 20.8 nM
GI50 (NCI-H322M lung): 10.8 nM
TGI (NCI-H322M lung): 31.8 nM
GI50 (SR leukemia): < 10 nM
TGI (SR leukemia): < 10 nM
GI50 (U251 glioblastoma): 11.3 nM
TGI (U251 glioblastoma): 66 nM
GI50 (HT29 colon): 11.1 nM
TGI (HT29 colon): > 100000 nM
GI50 (SN12C renal): < 10 nM
TGI (SN12C renal): 12.4 nM
GI50 (NCI-H226 lung): < 10 nM
TGI (NCI-H226 lung): 12.3 nM
GI50 (SK-OV-3 ovarian): < 10 nM
TGI (SK-OV-3 ovarian): 36.5 nM
GI50 (UO-31 renal): 11.4 nM
TGI (UO-31 renal): 51.3 nM
GI50 (NCI-H460 NSCLC): < 10 nM
TGI (NCI-H460 NSCLC): < 10 nM
GI50 (HOP-92 NSCLC): 12.3 nM
TGI (HOP-92 NSCLC): 47.7 nM
GI50 (EKVX NSCLC): 10 nM
TGI (EKVX NSCLC): 30.2 nM
GI50 (RXF 393 renal): < 10 nM
TGI (RXF 393 renal): < 10 nM
GI50 (ACHN renal): < 10 nM
TGI (ACHN renal): 32.4 nM
GI50 (PC-3 prostate): 12.3 nM
TGI (PC-3 prostate): 52 nM
GI50 (SK-MEL-28 melanoma): < 10 nM
TGI (SK-MEL-28 melanoma): < 10 nM
GI50 (T-47D breast): < 10 nM
TGI (T-47D breast): 37 nM
GI50 (HS 578T breast): < 10 nM
TGI (HS 578T breast): 18.4 nM
GI50 (UACC-257 melanoma): < 10 nM
TGI (UACC-257 melanoma): 21.2 nM
GI50 (SF-539 CNS): < 10 nM
TGI (SF-539 CNS): 15.4 nM
GI50 (RPMI-8226 leukemia): < 10 nM
TGI (RPMI-8226 leukemia): < 10 nM
GI50 (OVCAR-4 ovarian): < 10 nM
TGI (OVCAR-4 ovarian): < 10 nM
GI50 (HCT-15 colon): < 10 nM
TGI (HCT-15 colon): 31.6 nM
GI50 (HL-60(TB) leukemia): < 10 nM
TGI (HL-60(TB) leukemia): < 10 nM
GI50 (MALME-3M melanoma): < 10 nM
TGI (MALME-3M melanoma): 21 nM
GI50 (BT-549 breast): < 10 nM
TGI (BT-549 breast): < 10 nM
GI50 (A498 renal): < 10 nM
TGI (A498 renal): 27.5 nM
GI50 (LOX IMVI melanoma): < 10 nM
TGI (LOX IMVI melanoma): < 10 nM
GI50 (K-562 leukemia): < 10 nM
TGI (K-562 leukemia): 18.8 nM
GI50 (HCC-2998 colon): 13.7 nM
TGI (HCC-2998 colon): 31.3 nM
GI50 (DU-145 prostate): < 10 nM
TGI (DU-145 prostate): < 10 nM
GI50 (SW-620 colon): < 10 nM
TGI (SW-620 colon): 33.3 nM
GI50 (MOLT-4 leukemia): < 10 nM
TGI (MOLT-4 leukemia): < 10 nM
GI50 (SNB-19 CNS): 21.1 nM
TGI (SNB-19 CNS): > 100000 nM
GI50 (NCI/ADR-RES ovarian): < 10 nM
TGI (NCI/ADR-RES ovarian): 26.1 nM
GI50 (M14 melanoma): 11.7 nM
TGI (M14 melanoma): 24.1 nM
GI50 (NCI-H522 lung): < 10 nM
TGI (NCI-H522 lung): < 10 nM
GI50 (OVCAR-5 ovarian): < 10 nM
TGI (OVCAR-5 ovarian): > 100000 nM
GI50 ([…]-0 renal): < 10 nM
TGI (786-0 renal): 17.7 nM
GI50 (HOP-62 NSCLC): < 10 nM
TGI (HOP-62 NSCLC): < 10 nM
GI50 (OVCAR-3 ovarian): < 10 nM
TGI (OVCAR-3 ovarian): 12.4 nM
GI50 (A549 NSCLC): 15 nM
TGI (A549 NSCLC): > 100000 nM
